Broadly, the IC50 is the concentration that gives 50% inhibition.

Where “and” joins values, the source holds several entries; their conditions need not be identical. Equal entries are not always repeated.

In assay [1] the test system is U266-Luc MM cells. Put plainly: U266-Luc in vivo model, tail vein injection. Particulars: 10 mg/kg/day, M-F, from day 20; days post-tumor inoculation. The procedure: For the U266-Luc model, 1 × 10^6 cells (100 μl/PBS) were tail vein injected into 4- to 6-week-old female and male NSG mice. […] Endpoint was represented by hind limb paralysis or >20% weight loss. When sacrificed, tumors tibiae were harvested and fixed in 10% neutral buffered formalin for 24 hours. Bioluminescent signal is reported as the average of the sum of dorsal and ventral signal of the mice/group/timepoint. […]
28 Animal Experimentation: All animal experiments were performed with approval from the
29 Moffitt/University of South Florida Institutional Animal Care and Use Committee (Protocol
31 validation of MA9 efficacy (Figure 4), we initially included n = 10 mice per treatment group:
Randomization based on sex, weight,
33 and initial tumor burden was conducted, followed by treatment with either vehicle control (n = 6),
35 Tumor progression was tracked via bioluminescence: endpoint was paralysis or >20% weight loss.
36 Experiments were blinded. […]
38 For MA9 therapy efficacy, mice were treated with vehicle (n=10) or MA9 (10 mg/kg/day,
39 subcutaneously, M-F from day 20; n=10) (Supplementary Fig. 7E, F). Survival and toxicity
40 (weight, clinical signs) was monitored.
43 Luciferase-labeled MM cells 5TGM1-Luc (RRID: CVCL_VI66) and U266-Luc (RRID: […]
51 cells (all from the ATCC, USA) were routinely cultured at 37 °C in Roswell Park Memorial
53 FBS1) and penicillin/streptomycin (hereafter, complete medium).
54 Cells were not used for five days following PI-treatment. All myeloma cell lines were […]

Assay [2] relates to autophagy proteins in U266 MM cells. Put plainly: Immunoblot densitometry of autophagy proteins. The following applies: U266, 6h, MA9-060 1μM, JQ1 10μM, CQ 1μM; for LC3II densitometry: CTRL 0.34; for LC3I densitometry: CTRL 3.01; for ULK1 densitometry: CTRL 7.21; for ULK3 densitometry: CTRL 15.17. The class given is cell-based, Human. The procedure: Figure 3. Anti-myeloma activity of the MA9–060 autophagy inhibitor. A. Chemical structure of the autophagy inhibitor MA9–060. […] Chloroquine (CQ) (1μM) served as a positive control for autophagy inhibition. C. […] Hoechst 33342 dye appears here as the nuclear blue staining (Multiple comparisons ANOVA, p <0.0001).
157 5872S). Protein concentration was quantified by Thermo Scientific™ Pierce™ BCA™ Protein
30 μg protein was loaded to 10%-15% gel and ran at
159 100V for 2 hours. Later protein was transferred to PVDF membrane and blocked with 5% skimmed
160 milk in TBST (10 mM Tris/HCl pH8.0, 0.12M NaCl, 0.1% Tween 20) containing 5% BSA [8] for
163 at 4°C overnight. Membranes were washed 3 times,10 minutes with TBS. Then incubated with
164 appropriate secondary antibodies at 1:1000 ratio in skimmed milk or 2% BSA. The membranes
165 were washed again 3 times for 10 minutes with TBST. ECL reagents were added to the membrane
166 and blot was developed by LICOR Imaging Studio.
167 All immunoblotting assays were performed at least in three replicates and representative
168 images are shown. Commercially available antibodies and their dilutions are listed in
169 Supplementary Table 5. Immunoblotting images were acquired and quantified using LICOR
170 Image Studio Quant software. […]
On the technique in general: In western blotting, separated proteins are transferred to a membrane and probed.

Assay [3] concerns autophagy in U266 MM cells. As to the kind of experiment: CYTO-ID autophagy detection. The class given is cell-based, Human. The procedure: Autophagic activity was monitored using the Cyto-ID Green Autophagy Detection Kit (Enzo Life Sciences, ENZ-51031-K200, USA) as per manufacturer’s instructions. Further details and protocols for quantitative analysis by Flow Cytometry and Confocal Microscopy are provided in Supplementary Materials.
248 80% confluence. Cells were pelleted again and re-suspended in Resuspension Buffer R (Neon 10
249 μl kit Invitrogen) to a final concentration of 1 × 10^7 cells/ml. 1 × 10^6 cells were then transferred to
250 a sterile 1.5 ml microcentrifuge tube (Sarstedt), brought to 10 μl final volume of cell suspension
251 with Buffer R, and mixed with Alt-R CRISPR-Cas9 crRNA: Hs.Cas9.ULK3.1.AA (position
253 […]), (Integrated DNA Technologies). Alt-R CRISPR-Cas9
254 Negative Control RNA #1 (CAT# 1079138) was used in NTC control. Cells were counted,
255 electroporated and seeded in a 24-well plate with 0.5 ml of pre-warmed supplemented RPMI
258 Measurement of autophagic activity - CytoID Assay
260 autophagic compartments. Cells were washed and treated with 1 μM tested compound or vehicle
261 control for 6h under standard tissue culture conditions. […]
270 later, cells were washed and assessed by flow cytometry. […]
272 compensation and fluorescence-minus-one (FMO) controls were generated in parallel. […]
273 fluorescence intensity (MFI) and percentage of Cyto-ID Green-expressing MM singlet live (DAPI […]

Assay [4] concerns U266. Put plainly: MTS cell viability assay. The class given is cell-based. The following applies: Homo sapiens, U-266; U266, 48h, Fig. 6E; read-out: IC50, Survival (%). On the procedure:
(§1) Myeloma cell lines were plated in 96-well plates (2 × 10^5 cells/ml) and treated with vehicle control (HPβCD) and test compounds. Cell viability was assessed at 48 hours using the MTS assay (CellTiter 96, CAT# G3582). Absorbance was measured at 490 nm after a 2-hour incubation at 37°C. IC50 values were calculated using Prism software (version 9.3.1), and synergy matrices were generated with Combenefit Software.

Assay [5] deals with U266-PSR. Put plainly: MTS cell viability assay. Particulars: 48h, Fig. 6E, read-out: IC50, Survival (%). The class given is cell-based. The procedure: as §1
In assay [6] the test system is MM cells (5TGM1, 8226, and U266). Put plainly: MTS assay on MM cells. It counts as cell-based. On the procedure: as §1
In general terms: Tetrazolium dyes change colour on reduction, which living cells bring about.

Assay [7] has as its system primary CD138+ MM cells. As to the kind of experiment: EMMA ex vivo platform, live cell imaging, 96 hours, collagen matrix with bone marrow stroma and patient plasma. It counts as cell-based. The arrangement: scale not given here. From the text: For clinical robustness, we tested the activity of MA9 in MM patient samples using our ex vivo mathematical myeloma advisor (EMMA) platform (Supplementary Table 1). […]
For these assays, we used a novel EMMA platform developed at Moffitt. Further details are included in the supplemental Materials. […]
400 Ex vivo drug sensitivity characterization
401 An ex vivo assay was used to quantify the chemosensitivity of primary MM cells. Fresh BM
402 aspirate cells were enriched for CD138+ expression using Miltenyi (Bergisch Gladbach, Germany)
MM cells (CD138+) were seeded in Corning
404 Cell BIND 384 well plates (Corning, NY) with collagen I and previously established human-
407 inactivated), penicillin/streptomycin, and patient-derived plasma (10%, freshly obtained from
409 added using a robotic plate handler so that every drug/combination was tested at 5 (fixed
410 concentration ratio, for combinations) concentrations (1:3 serial dilution) in two replicates.
411 Negative controls (supplemented growth media with and without the vehicle control dimethyl
412 sulfoxide [DMSO]) were included, as well as positive controls for each drug (cell line MM1.S at
413 highest drug concentration). Plates were placed in a motorized stage microscope (EVOS Auto FL,
414 Life Technologies, Carlsbad, CA) equipped with an incubator and maintained at 5% CO2 and 37
415 °C. […]
Digital image analysis computes the percent
418 viability of MM cells for each time point and experimental condition (drug and concentration)

With `Cc1sc2c(c1C)C(c1ccc(Cl)cc1)=N[C@@H](CC(=O)OC(C)(C)C)c1nnc(C)n1-2` [JQ1], in assay [1], the median survival was found to be 90.5 days. Besides, in assay [2], the LC3II densitometry worked out at 0.40, the LC3I densitometry was found to be 3.36, the ULK1 densitometry stood at 6.20 and the ULK3 densitometry is 16.81. For the same compound, the effect on autophagy result in assay [3] is recorded as “no effect”.

In assay [1], `CCN(CC)CCCC(C)Nc1ccnc2cc(Cl)ccc12` (stereo not drawn) [CQ, Chloroquine] showed a median survival of 81.5 days. For the same compound, in assay [4], the IC50 came to 0.055 mM. Moreover, in assay [5], the IC50 worked out at 8.7 mM. In assay [2], this compound yielded an LC3II densitometry of 0.14, an LC3I densitometry of 1.69, a ULK1 densitometry of 0.78 and a ULK3 densitometry of 11.1.

For `N#CC[C@H](C1CCCC1)n1cc(-c2ncnc3[nH]ccc23)cn1` [ruxolitinib], the “effect on cell survival” value in assay [6] is “no effect”.

Turning to `CC(C)C[C@H](NC(=O)[C@H](Cc1ccccc1)NC(=O)c1cnccn1)B(O)O` [BTZ, bortezomib], the AUC in assay [7] (Pt648, LRMM) came to 48.724; in assay [7] (Pt652, LRMM) it was 65.980; in assay [7] (Pt655, LRMM) it was 29.968; in assay [7] (Pt663, LRMM) it was 45.417; in assay [7] (Pt665, LRMM), 47.552; in assay [7] (Pt666, LRMM), 37.470. The AUC is 37.041 in assay [7] (Pt669, ERMM); 45.751 in assay [7] (Pt672, NDMM); 30.916 and 33.959 in assay [7] (Pt677, NDMM); 39.728 and 39.652 in assay [7] (Pt680, ERMM); 34.249 in assay [7] (Pt685, ERMM); 40.257 in assay [7] (Pt689, NDMM). For the same compound, the AUC was 38.965 in assay [7] (Pt691, LRMM); 87.905 in assay [7] (Pt693, SMOL); 31.313 in assay [7] (Pt694, NDMM); 46.540 in assay [7] (Pt695, LRMM); 44.112 in assay [7] (Pt697, NDMM); 42.763 and 44.093 in assay [7] (Pt700, NDMM). For the same compound, the AUC is 60.814 in assay [7] (Pt707, LRMM); 35.864 in assay [7] (Pt737, MGUS); 46.001 in assay [7] (Pt738, NDMM); 32.547 in assay [7] (Pt740, SMOL); 47.650 in assay [7] (Pt745, NDMM); 23.262 in assay [7] (Pt852, NDMM). Moreover, the AUC in assay [7] (Pt853, ERMM) is 63.604 and 64.834; in assay [7] (Pt856, NDMM), 36.749; in assay [7] (Pt866, NDMM) it was 36.635; in assay [7] (Pt875, NDMM), 45.303; in assay [7] (Pt888, LRMM), 100.000; in assay [7] (Pt893, LRMM) it was 100.000. In addition, the AUC in assay [7] (Pt899, SMOL) was determined as 59.818; in assay [7] (Pt906, NDMM) it was 59.784; in assay [7] (Pt909, LRMM), 29.196; in assay [7] (Pt912, PCL), 26.800; in assay [7] (Pt917, LRMM), 78.984; in assay [7] (Pt920, LRMM), 42.040. Moreover, the AUC in assay [7] (Pt923, LRMM) was 45.019; in assay [7] (Pt932, LRMM), 28.145; in assay [7] (Pt933, LRMM), 39.573; in assay [7] (Pt935, NDMM), 31.629; in assay [7] (Pt936, LRMM), 45.292; in assay [7] (Pt937, NDMM), 46.111 and 46.768. The AUC in assay [7] (Pt940, LRMM) is 43.043; in assay [7] (Pt956, NDMM), 64.107 and 61.177; in assay [7] (Pt957, LRMM) it was 82.570; in assay [7] (Pt961, NDMM) it was 70.805 and 67.849.
